Laboratory results from patent US20250213707A1, “COMPOUND FOR INCREASING EFFICACY OF ONCOLYTIC VIRUSES” (ABLEVIA BIOTECH GMBH, priority 2022, published 2025).

Assays:
[1] = test system: IgG from human donors (anti-AAV antibodies); assay: Screen for anti-AAV antibodies in human sera based on cyclic 14-amino-acid AAV peptides on microarrays (Table 2); assay type: binding; design: key: X: the deduplicated aggregate of the respective top 50 peptide hits for each donor was compiled and designated as group I; details: human donor IgG; circularized AAV peptides; top 50 peptide hits for each donor
Procedure: More than 1200 cyclic peptides derived from the sequences of human and rhesus monkey AAV sequences and artificial AAV sequences according to Table 2 and with a sequence length of 14 amino-acids each were synthesized.
Samples obtained from human donors were screened for antibodies against these AAV-derived peptides immobilized on microarrays. To this end, IgG was prepared from blood obtained from the human donors by protein G purification. Each IgG sample was incubated with the peptide microarrays and Ig binding signals were detected by fluorescence. All antibody binding signals to the peptides on the arrays were background subtracted and ranked for each sample and a deduplicated aggregate of the respective top 250 peptide hits for each donor with the corresponding protein sequence of origin (as obtained from UniProt or other sources) was compiled (designated as group II). Further, the deduplicated aggregate of the respective top 50 peptide hits for each donor was compiled and designated as group I.
Altogether, group I contains 47 distinct peptide hits (assigned to the corresponding AAV vectors in Table 2) and group II yielded 172 distinct peptide hits. Evidently, group I is a subset of group II.

[2] = test system: IgG from human donors (anti-AAV antibodies); assay: Screen for anti-AAV antibodies in human sera, 2452 linear 15-amino-acid AAV peptides on microarrays (Table 1); assay type: binding; design: key to group I: X: the deduplicated aggregate of the respective top 10 peptide hits for each donor was compiled and designated as group I; key to group II: X: the deduplicated aggregate of the respective top 25 peptide hits for each donor was compiled and designated as group II; key to group III: X: the deduplicated aggregate of the respective top 50 peptide hits for each donor was compiled and designated as group III; details: human donor IgG binding to linear 15-amino-acid AAV peptides on microarray, fluorescence; for group II: membership in deduplicated aggregate of top 25 peptide hits for each donor; for group III: membership in deduplicated aggregate of top 50 peptide hits for each donor
Outline: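 Protein G-purified IgG from human donor blood incubated with microarrays of 2452 linear 15-mer peptides from 16 AAVs; binding read by fluorescence. Background-subtracted signals ranked per donor, with top 10, 25, 50 and 250 hits pooled and deduplicated into groups I-IV.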

[3] = test system: polyclonal antibody ab6982; assay: Epitope mapping of polyclonal antibody ab6982 against cyclic peptides of Ad5 fiber and hexon (peptide array); assay type: binding, rabbits; details: cyclic peptides of fiber protein (clusters 1-7)

Substance | group I [1] | also measured
1924 (YDQQLKAGDNPYLK; REGION 1..14: note = peptide derived from viral capsid protein) [compound 1924] | X | –
1922 (SESVPDPQPLGEPP; REGION 1..14: note = peptide derived from viral capsid protein) [compound 1922] | X | –
1938 (PLVDQYLYRFVSTN; REGION 1..14: note = peptide derived from viral capsid protein) [compound 1938] | X | –
1913 (QLKAGDNPYLRYNH; REGION 1..14: note = peptide derived from viral capsid protein) [compound 1913] | X | –
1923 (TAPGKKRPVDQSPQ; REGION 1..14: note = peptide derived from viral capsid protein) [compound 1923] | X | –
1897 (GNTSQQQTDRNAFY; REGION 1..14: note = peptide derived from viral capsid protein) [compound 1897] | X | –
1896 (KIFNIQVKEVTTSN; REGION 1..14: note = peptide derived from viral capsid protein) [compound 1896] | X | –
1893 (DTNGVYSEPRPIGT; REGION 1..14: note = peptide derived from viral capsid protein) [compound 1893] | X | –
1902 (DEEEIRTTNPVATE; REGION 1..14: note = peptide derived from viral capsid protein) [compound 1902] | X | –
1907 (IFNIQVKEVTTSNG; REGION 1..14: note = peptide derived from viral capsid protein) [compound 1907] | X | –
1927 (GTNTMATGSGAPMA; REGION 1..14: note = peptide derived from viral capsid protein) [compound 1927] | X | –
1921 (PEIQYTSNYNKSVN; REGION 1..14: note = peptide derived from viral capsid protein) [compound 1921] | X | –
1935 (EEEIKTTNPVATEE; REGION 1..14: note = peptide derived from viral capsid protein) [compound 1935] | X | –
1917 (HYFGYSTPWGYFDF; REGION 1..14: note = peptide derived from viral capsid protein) [compound 1917] | X | –
1898 (LEDNLSEGIREWWD; REGION 1..14: note = peptide derived from viral capsid protein) [compound 1898] | X | –
1932 (DEEEIKATNPVATE; REGION 1..14: note = peptide derived from viral capsid protein) [compound 1932] | X | –
1919 (GKKRPVDQSPQEPD; REGION 1..14: note = peptide derived from viral capsid protein) [compound 1919] | X | –
1900 (LIKNTPVPADPPTT; REGION 1..14: note = peptide derived from viral capsid protein) [compound 1900] | X | –
APGKKRPVEHSPVE (REGION 1..14: note = peptide derived from viral capsid protein) [SEQ ID NO: 1999] | – | group I ([2]; membership in deduplicated aggregate of top 10 peptide hits for each donor): X; group II [2]: X; group III [2]: X; antibody binding signal ranking from the microarray experiment [3]: 061
EEEIKATNPVATER [SEQ ID NO: 2045] | – | group II [2]: X; group III [2]: X; antibody binding signal ranking from the microarray experiment [3]: 148
KRVLEPLGLVESPV [SEQ ID NO: 2012] | – | group II [2]: X; group III [2]: X; antibody binding signal ranking from the microarray experiment [3]: 085
HSQSLDRMMNPLLD [SEQ ID NO: 2033] | – | group II [2]: X; group III [2]: X; antibody binding signal ranking from the microarray experiment [3]: 062
